Tests used:
[1] = target: Bcl-xL (Homo sapiens (Human), UniProt Q07817); experiment: Bcl-xL/Bim Fluorescence Resonance Energy Transfer Assay (FRET); type: binding
Outline: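 Biotin-Bcl-xL was incubated with Bim and compound at eleven concentrations for 60 min at room temperature. Streptavidin-terbium detection was then added for 30 min in the dark, and FRET was read. IC50 values were obtained by non-linear regression.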

[2] = target: Bcl-2 (Homo sapiens (Human), UniProt P10415); experiment: Bcl-2/Bim Fluorescence Polarization Assay (FPA); type: binding
Chain of Bcl-2 (P10415 whole entry): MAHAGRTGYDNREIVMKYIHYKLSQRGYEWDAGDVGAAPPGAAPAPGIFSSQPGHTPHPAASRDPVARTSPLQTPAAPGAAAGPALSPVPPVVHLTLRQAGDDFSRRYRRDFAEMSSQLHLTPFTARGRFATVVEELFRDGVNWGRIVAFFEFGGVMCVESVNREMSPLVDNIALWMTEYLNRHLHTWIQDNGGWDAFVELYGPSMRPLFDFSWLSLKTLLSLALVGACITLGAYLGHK

Chain of Bcl-xL (Q07817 whole entry): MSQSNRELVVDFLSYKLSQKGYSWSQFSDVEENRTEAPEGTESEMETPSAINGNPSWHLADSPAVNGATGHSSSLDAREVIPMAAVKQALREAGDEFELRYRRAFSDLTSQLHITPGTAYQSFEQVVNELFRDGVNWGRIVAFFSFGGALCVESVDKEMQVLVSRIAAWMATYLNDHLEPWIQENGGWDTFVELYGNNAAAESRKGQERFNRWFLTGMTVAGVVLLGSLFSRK

Compound	IC50 [1] [µM]	IC50 [2] [µM]
CCCCN(CCC(=O)NCCN1CCN(C)CC1)C(=O)c1nn(-c2ccc(C(=O)NS(=O)(=O)c3ccc4c(c3)CCN4Cc3ccc(Cl)c(Cl)c3)cc2C(=O)N2CCc3ccccc3C2)c(C)c1Cl [Example 200, N-butyl-4-chloro-1-(4-(1-(3,4-dichlorobenzyl)indolin-5-ylsulfonylcarbamoyl)-2-(1,2,3,4-tetrahydroisoquinoline-2-carbonyl)phenyl)-5-methyl-N-(3-(2-(4-methylpiperazin-1-yl)ethylamino)-3-oxopropyl)-1H-pyrazole-3-carboxamide]	0.13	1.01
CCCCN(CCCC)C(=O)c1nn(-c2ccc(C(=O)NS(=O)(=O)c3ccc4cccc(Cl)c4c3)cc2C(=O)N2Cc3ccccc3C[C@H]2CN)c(C)c1Cl [Example 203, 1-(2-((S)-3-(aminomethyl)-1,2,3,4-tetrahydroisoquinoline-2-carbonyl)-4-(8-chloronaphthalen-2-ylsulfonylcarbamoyl)phenyl)-N,N-dibutyl-4-chloro-5-methyl-1H-pyrazole-3-carboxamide]	0.01	0.01
CCCCN(CCCC)C(=O)c1nn(-c2ccc(C(=O)NS(=O)(=O)c3cc(Br)c4c(c3)CCN4CC)cc2C(=O)N2Cc3ccccc3C[C@H]2CO)c(C)c1Cl [Example 205, 1-(4-(7-bromo-1-ethylindolin-5-ylsulfonylcarbamoyl)-2-((S)-3-(hydroxymethyl)-1,2,3,4-tetrahydroisoquinoline-2-carbonyl)phenyl)-N,N-dibutyl-4-chloro-5-methyl-1H-pyrazole-3-carboxamide]	0.00885	0.00915
CCCN(CCC)c1nn(-c2ccc(C(=O)NS(=O)(=O)c3ccc4c(Cl)ccc(Br)c4c3)cc2C(=O)N2Cc3ccccc3C[C@H]2CO)c(C)c1Cl [Example 207, N-(8-bromo-5-chloronaphthalen-2-ylsulfonyl)-4-(4-chloro-3-(dipropylamino)-5-methyl-1H-pyrazol-1-yl)-3-((S)-3-(hydroxymethyl)-1,2,3,4-tetrahydroisoquinoline-2-carbonyl)benzamide]	0.04	0.00784
CCCCN(CCCC)C(=O)c1nn(-c2ccc(C(=O)NS(=O)(=O)c3cc(Br)c4c(ccn4CC)c3)cc2C(=O)N2Cc3ccccc3C[C@H]2CO)c(C)c1Cl [Example 208, 1-(4-(7-bromo-1-ethyl-1H-indol-5-ylsulfonylcarbamoyl)-2-((S)-3-(hydroxymethyl)-1,2,3,4-tetrahydroisoquinoline-2-carbonyl)phenyl)-N,N-dibutyl-4-chloro-5-methyl-1H-pyrazole-3-carboxamide]	0.00788	0.00359
CCCCN(Cc1ccc(-c2ccc(CC(=O)O)cc2)cc1)C(=O)c1nn(-c2ccc(C(=O)NS(=O)(=O)c3ccc4c(c3)CCN4Cc3ccc(Cl)c(Cl)c3)cc2C(=O)N2CCc3ccccc3C2)c(C)c1Cl [Example 213, 2-(4′-((N-butyl-4-chloro-1-(4-(1-(3,4-dichlorobenzyl)indolin-5-ylsulfonylcarbamoyl)-2-(1,2,3,4-tetrahydroisoquinoline-2-carbonyl)phenyl)-5-methyl-1H-pyrazole-3-carboxamido)methyl)biphenyl-4-yl)acetic acid]	0.08	0.01
CCCCN(C(=O)c1nn(-c2ccc(C(=O)NS(=O)(=O)c3ccc4c(Cl)ccc(Br)c4c3)cc2C(=O)N2CCc3ccccc3C2)c(C)c1Cl)c1cccc(-c2ccc(Cl)cc2)c1 [Example 217, 1-(4-(8-bromo-5-chloronaphthalen-2-ylsulfonylcarbamoyl)-2-(1,2,3,4-tetrahydroisoquinoline-2-carbonyl)phenyl)-N-butyl-4-chloro-N-(4′-chlorobiphenyl-3-yl)-5-methyl-1H-pyrazole-3-carboxamide]	0.07	0.01

— patent publication US9346795B2, “Substituted sulfonamides useful as antiapoptotic Bcl inhibitors” (Bristol-Myers Squibb Company, priority 2011, dated 2016)
